# From ChEMBL document CHEMBL1146685, “The difluoromethylene group as a replacement for the labile oxygen in steroid sulfates: a new approach to steroid sulfatase inhibitors” (Bioorg Med Chem Lett, 2004)
# T1: Steryl-sulfatase (Homo sapiens, UniProt P08842)
# T1 sequence (P08842 whole entry): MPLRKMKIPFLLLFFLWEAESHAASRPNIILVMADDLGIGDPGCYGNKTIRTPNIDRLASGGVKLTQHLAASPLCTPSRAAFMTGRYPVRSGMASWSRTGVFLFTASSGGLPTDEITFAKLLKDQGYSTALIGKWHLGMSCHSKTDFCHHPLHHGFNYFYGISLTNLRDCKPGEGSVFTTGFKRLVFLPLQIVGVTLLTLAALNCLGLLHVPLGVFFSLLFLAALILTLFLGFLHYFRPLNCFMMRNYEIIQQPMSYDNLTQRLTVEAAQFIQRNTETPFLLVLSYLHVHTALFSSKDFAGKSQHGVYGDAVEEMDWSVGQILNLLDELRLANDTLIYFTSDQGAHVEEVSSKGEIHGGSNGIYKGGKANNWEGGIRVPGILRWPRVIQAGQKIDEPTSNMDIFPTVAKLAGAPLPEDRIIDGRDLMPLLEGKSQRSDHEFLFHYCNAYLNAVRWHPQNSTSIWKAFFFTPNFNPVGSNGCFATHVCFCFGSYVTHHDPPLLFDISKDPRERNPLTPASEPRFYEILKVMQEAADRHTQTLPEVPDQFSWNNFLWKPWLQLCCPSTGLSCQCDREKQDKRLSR
# T2: Steryl-sulfatase (Homo sapiens) (UniProt P08842)
# T2 sequence (whole entry): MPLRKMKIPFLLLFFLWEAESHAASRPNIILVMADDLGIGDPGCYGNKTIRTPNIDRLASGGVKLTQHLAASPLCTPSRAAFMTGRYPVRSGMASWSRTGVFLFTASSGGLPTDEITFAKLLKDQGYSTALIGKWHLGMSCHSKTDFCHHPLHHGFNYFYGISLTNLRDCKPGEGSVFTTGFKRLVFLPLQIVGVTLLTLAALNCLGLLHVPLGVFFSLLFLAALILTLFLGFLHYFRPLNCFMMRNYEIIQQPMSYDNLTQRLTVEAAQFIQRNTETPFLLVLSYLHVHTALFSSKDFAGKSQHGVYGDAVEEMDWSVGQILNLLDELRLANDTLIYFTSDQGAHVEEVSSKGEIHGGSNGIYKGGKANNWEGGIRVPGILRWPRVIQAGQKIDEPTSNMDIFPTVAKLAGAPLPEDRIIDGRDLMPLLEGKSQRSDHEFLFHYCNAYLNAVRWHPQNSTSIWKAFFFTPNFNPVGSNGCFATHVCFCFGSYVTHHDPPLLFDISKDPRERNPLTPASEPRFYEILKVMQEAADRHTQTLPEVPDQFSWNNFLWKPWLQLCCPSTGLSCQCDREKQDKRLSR
# Tests used:
# Steryl-sulfatase [1] = molecular target: T1, Steryl-sulfatase; experiment: (§1) Inhibitory activity against steroid sulfatase (STS)
# Steryl-sulfatase [2] = molecular target: T1, Steryl-sulfatase; experiment: Competitive inhibitory activity against steroid sulfatase (STS)
# Steryl-sulfatase [3] = molecular target: T1, Steryl-sulfatase; experiment: Inhibitory activity against steroid sulfatase (STS) using methodology of Li et al.
# [4] = molecular target: T2, Steryl-sulfatase (Homo sapiens)
# [5] = molecular target: T2, Steryl-sulfatase (Homo sapiens); experiment: as §1
# [6] = substrate: C[C@]12CC[C@@H]3c4ccc(OS(=O)(=O)O)cc4CC[C@H]3[C@@H]1CCC2=O; experiment: Michaelis-Menten constant steroid sulfatase (STS) was determined
molecule,measurement,setting,value
C[C@]12CC[C@@H]3c4ccc(C(F)(F)S(=O)(=O)O)cc4CC[C@H]3[C@@H]1CC/C2=C\O,Ki,Steryl-sulfatase [1],37 µM
"C[C@]12CC[C@@H]3c4ccc(C(F)(F)S(=O)(=O)O)cc4CCC3[C@@H]1CCC2=O (single isomer, unassigned)",Ki,Steryl-sulfatase [2],57 µM
"C[C@]12CC[C@@H]3c4ccc(CS(=O)(=O)O)cc4CCC3[C@@H]1CCC2=O (single isomer, unassigned)",Ki,Steryl-sulfatase [1],140 µM
same,Ki,Steryl-sulfatase [3],600 µM
same,Alpha Ki,[4],1380 µM
C[C@]12CC[C@@H]3c4ccc(C(F)(F)C5N=NN=N5)cc4CC[C@H]3[C@@H]1CCC2=O,Ki,Steryl-sulfatase [2],16 µM
"C[C@]12CC[C@@H]3c4ccc(Cc5nnn[nH]5)cc4CCC3[C@@H]1CCC2=O (single isomer, unassigned)",Alpha Ki,[5],213 µM
same,Ki,Steryl-sulfatase [1],72.7 µM
C[C@]12CC[C@@H]3c4ccc(CS(=O)(=O)O)cc4CC[C@H]3[C@@H]1CC/C2=C\O,Ki,Steryl-sulfatase [1],140 µM
"Steryl-sulfatase (Homo sapiens), P08842 (protein) MPLRKMKIPFLLLFFLWEAESHAASRPNIILVMADDLGIGDPGCYGNKTIRTPNIDRLASGGVKLTQHLAASPLCTPSRAAFMTGRYPVRSGMASWSRTGVFLFTASSGGLPTDEITFAKLLKDQGYSTALIGKWHLGMSCHSKTDFCHHPLHHGFNYFYGISLTNLRDCKPGEGSVFTTGFKRLVFLPLQIVGVTLLTLAALNCLGLLHVPLGVFFSLLFLAALILTLFLGFLHYFRPLNCFMMRNYEIIQQPMSYDNLTQRLTVEAAQFIQRNTETPFLLVLSYLHVHTALFSSKDFAGKSQHGVYGDAVEEMDWSVGQILNLLDELRLANDTLIYFTSDQGAHVEEVSSKGEIHGGSNGIYKGGKANNWEGGIRVPGILRWPRVIQAGQKIDEPTSNMDIFPTVAKLAGAPLPEDRIIDGRDLMPLLEGKSQRSDHEFLFHYCNAYLNAVRWHPQNSTSIWKAFFFTPNFNPVGSNGCFATHVCFCFGSYVTHHDPPLLFDISKDPRERNPLTPASEPRFYEILKVMQEAADRHTQTLPEVPDQFSWNNFLWKPWLQLCCPSTGLSCQCDREKQDKRLSR",Km,[6],21 µM
